Where “and” joins values, the source holds several entries; their conditions need not be identical. Identical values can stand only once. Toxic doses and inconclusive results are not listed. Rule for the calls: active = survival T/C of 150% or more; inactive = T/C below 125% in these data.
Tested on: CD2F1 mice, L1210 leukemia ip, survival T/C
Assay: NCI In Vivo Anticancer Drug Screen. Data for tumor model L1210 Leukemia (intraperitoneal) in CD2F1 (CDF1) mice
Conditions: higher = longer survival
Procedure, shortened: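 Antitumor effect is scored in animals hosting a serially transplanted tumor. Values compare compound-dosed animals against vehicle-only controls as a simple quotient.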

[1] = endpoint: mean survival time, dose: 25.0 mg/kg/injection, schedule: Q04DX002 (ip), vehicle: saline with Tween-80
[2] = endpoint: mean survival time, dose: 100.0 mg/kg/injection, schedule: Q04DX003 (ip), vehicle: saline
[3] = endpoint: mean survival time, dose: 200.0 mg/kg/injection, schedule: Q04DX003 (ip), vehicle: saline
[4] = endpoint: mean survival time, dose: 100.0 mg/kg/injection, schedule: Q01DX001 (ip), vehicle: saline with Tween-80
[5] = endpoint: mean survival time, dose: 200.0 mg/kg/injection, schedule: Q01DX001 (ip), vehicle: saline with Tween-80
[6] = endpoint: mean survival time, dose: 400.0 mg/kg/injection, schedule: Q01DX001 (ip), vehicle: saline with Tween-80
[7] = endpoint: mean survival time, dose: 100.0 mg/kg/injection, schedule: Q04DX003 (ip), vehicle: saline with Tween-80
[8] = endpoint: mean survival time, dose: 200.0 mg/kg/injection, schedule: Q04DX003 (ip), vehicle: saline with Tween-80
[9] = endpoint: mean survival time, dose: 400.0 mg/kg/injection, schedule: Q04DX003 (ip), vehicle: saline with Tween-80

Measured: T/C

CC(=O)Nc1cscc1NC(C)=O
inactive: endpoint: median survival time, dose: 12.5 mg/kg/injection, schedule: Q01DX009 (ip), vehicle: saline with Tween-80 100 % of control | endpoint: median survival time, dose: 25.0 mg/kg/injection, schedule: Q01DX009 (ip), vehicle: saline with Tween-80 105 % of control and 111 % of control | endpoint: median survival time, dose: 50.0 mg/kg/injection, schedule: Q01DX009 (ip), vehicle: saline with Tween-80 91 % of control and 103 % of control | endpoint: median survival time, dose: 100.0 mg/kg/injection, schedule: Q01DX009 (ip), vehicle: saline with Tween-80 100 % of control and 101 % of control | endpoint: median survival time, dose: 200.0 mg/kg/injection, schedule: Q01DX009 (ip), vehicle: saline with Tween-80 102 % of control and 103 % of control | endpoint: median survival time, dose: 400.0 mg/kg/injection, schedule: Q01DX009 (ip), vehicle: saline with Tween-80 103 % of control and 108 % of control

NC(CSS(=O)(=O)O)=NCC1CCCCC1
inactive: endpoint: mean survival time, dose: 6.25 mg/kg/injection, schedule: Q04DX002 (ip), vehicle: saline with Tween-80 101 % of control and 107 % of control | endpoint: mean survival time, dose: 12.5 mg/kg/injection, schedule: Q04DX002 (ip), vehicle: saline with Tween-80 104 % of control and 112 % of control | [1] 96 % of control

Nc1c(Cl)ncnc1NNC(=O)OCc1ccccc1
inactive: endpoint: mean survival time, dose: 100.0 mg/kg/injection, schedule: Q01DX001 (ip), vehicle: carboxymethylcellulose (CMC) 104 % of control | endpoint: mean survival time, dose: 200.0 mg/kg/injection, schedule: Q01DX001 (ip), vehicle: carboxymethylcellulose (CMC) 98 % of control | endpoint: mean survival time, dose: 400.0 mg/kg/injection, schedule: Q01DX001 (ip), vehicle: carboxymethylcellulose (CMC) 103 % of control

O=S1(=O)c2ccccc2C(=NO)c2ccccc21
inactive: [2] 92 % of control | [3] 96 % of control | endpoint: mean survival time, dose: 400.0 mg/kg/injection, schedule: Q04DX003 (ip), vehicle: saline 106 % of control

COC(=O)COc1ccccc1Cl
inactive: [4] 102 % of control | [5] 102 % of control | [6] 104 % of control

O=C(Nc1ccccc1O)/C(Cl)=C/Cl
inactive: endpoint: mean survival time, dose: 100.0 mg/kg/injection, schedule: Q01DX009 (ip), vehicle: saline with Tween-80 104 % of control

CN1CCCC1CN1c2ccccc2Sc2ccccc21 (stereo not drawn)
inactive: [2] 102 % of control

S=c1nccc[nH]1.[Pt]
inactive: endpoint: mean survival time, dose: 3.13 mg/kg/injection, schedule: Q04DX003 (ip), vehicle: distilled water + Tween-80 98 % of control | endpoint: mean survival time, dose: 6.25 mg/kg/injection, schedule: Q04DX003 (ip), vehicle: distilled water + Tween-80 103 % of control | endpoint: mean survival time, dose: 12.5 mg/kg/injection, schedule: Q04DX003 (ip), vehicle: distilled water + Tween-80 98 % of control | endpoint: mean survival time, dose: 25.0 mg/kg/injection, schedule: Q04DX003 (ip), vehicle: distilled water + Tween-80 97 % of control | endpoint: mean survival time, dose: 50.0 mg/kg/injection, schedule: Q04DX003 (ip), vehicle: distilled water + Tween-80 90 % of control | endpoint: mean survival time, dose: 100.0 mg/kg/injection, schedule: Q04DX003 (ip), vehicle: distilled water + Tween-80 98 % of control | endpoint: mean survival time, dose: 200.0 mg/kg/injection, schedule: Q04DX003 (ip), vehicle: distilled water + Tween-80 98 % of control

[CH3][Sb]([CH3])([CH3])([Cl])[Cl]
inactive: endpoint: mean survival time, dose: 50.0 mg/kg/injection, schedule: Q04DX003 (ip), vehicle: saline 105 % of control | [2] 101 % of control | [3] 101 % of control

c1ccc(NCc2nc3ccccc3[nH]2)cc1
inactive: endpoint: mean survival time, dose: 12.5 mg/kg/injection, schedule: Q01DX005 (ip), vehicle: water 101 % of control | endpoint: mean survival time, dose: 25.0 mg/kg/injection, schedule: Q01DX005 (ip), vehicle: water 102 % of control

Cc1ccc(S(=O)(=O)CN(O)C(N)=O)cc1
inactive: endpoint: mean survival time, dose: 7.5 mg/kg/injection, schedule: Q01DX009 (ip), vehicle: saline with Tween-80 93 % of control | endpoint: mean survival time, dose: 15.0 mg/kg/injection, schedule: Q01DX009 (ip), vehicle: saline with Tween-80 102 % of control | endpoint: mean survival time, dose: 30.0 mg/kg/injection, schedule: Q01DX009 (ip), vehicle: saline with Tween-80 93 % of control | endpoint: mean survival time, dose: 60.0 mg/kg/injection, schedule: Q01DX009 (ip), vehicle: saline with Tween-80 107 % of control | endpoint: mean survival time, dose: 120.0 mg/kg/injection, schedule: Q01DX009 (ip), vehicle: saline with Tween-80 105 % of control | endpoint: mean survival time, dose: 240.0 mg/kg/injection, schedule: Q01DX009 (ip), vehicle: saline with Tween-80 115 % of control

CC(C)(C)C1=CC(=CN(O)C(C)(C)C)C=C(C(C)(C)C)C1=O
inactive: [4] 100 % of control | [5] 103 % of control | [6] 100 % of control

O=C(COc1ccc(Br)cc1C(=O)O)Nc1ccccc1
inactive: [7] 96 % of control | [8] 97 % of control | [9] 94 % of control

COC(=O)C12C=CC=CC3C(C=C1)NC(=O)C32 (stereo not drawn)
inactive: endpoint: median survival time, dose: 25.0 mg/kg/injection, schedule: Q04DX002 (ip), vehicle: saline with Tween-80 122 % of control | endpoint: median survival time, dose: 50.0 mg/kg/injection, schedule: Q04DX002 (ip), vehicle: saline with Tween-80 100 % of control | endpoint: median survival time, dose: 100.0 mg/kg/injection, schedule: Q04DX002 (ip), vehicle: saline with Tween-80 100 % of control | endpoint: median survival time, dose: 200.0 mg/kg/injection, schedule: Q04DX002 (ip), vehicle: saline with Tween-80 111 % of control

COc1ccc(NC(=O)Nc2cccc(Cl)c2)c(Cl)c1
inactive: [1] 88 % of control | endpoint: mean survival time, dose: 50.0 mg/kg/injection, schedule: Q04DX002 (ip), vehicle: saline with Tween-80 92 % of control | endpoint: mean survival time, dose: 400.0 mg/kg/injection, schedule: Q04DX002 (ip), vehicle: saline with Tween-80 88 % of control

C=C1[C@@H](C)[C@H]2[C@H](Cc3ccccc3)NC(=O)[C@]23OC(=O)/C=C/[C@H](O)CCC[C@@H](C)C/C=C/[C@H]3[C@@H]1O
inactive: endpoint: mean survival time, dose: 0.5 mg/kg/injection, schedule: Q04DX002 (ip), vehicle: Klucel (hydroxypropylcellulose) (HPC) 100 % of control | endpoint: mean survival time, dose: 1.0 mg/kg/injection, schedule: Q04DX002 (ip), vehicle: Klucel (hydroxypropylcellulose) (HPC) 103 % of control | endpoint: mean survival time, dose: 2.0 mg/kg/injection, schedule: Q04DX002 (ip), vehicle: Klucel (hydroxypropylcellulose) (HPC) 100 % of control | endpoint: mean survival time, dose: 4.0 mg/kg/injection, schedule: Q04DX002 (ip), vehicle: Klucel (hydroxypropylcellulose) (HPC) 103 % of control | endpoint: mean survival time, dose: 8.0 mg/kg/injection, schedule: Q04DX002 (ip), vehicle: Klucel (hydroxypropylcellulose) (HPC) 95 % of control

Cc1sc(Cc2ccccc2)nc1-c1ccc(N=Cc2ccc(N(CCOS(C)(=O)=O)CCOS(C)(=O)=O)cc2)cc1
inactive: endpoint: mean survival time, dose: 25.0 mg/kg/injection, schedule: Q01DX009 (ip), vehicle: saline with Tween-80 107 % of control | endpoint: mean survival time, dose: 50.0 mg/kg/injection, schedule: Q01DX009 (ip), vehicle: saline with Tween-80 93 % of control

O=C(Nc1cc(Cl)ccc1C(=O)O)c1cccc(C[n+]2ccccc2)c1
inactive: endpoint: median survival time, dose: 50.0 mg/kg/injection, schedule: Q01DX005 (ip), vehicle: saline with Tween-80 105 % of control | endpoint: median survival time, dose: 100.0 mg/kg/injection, schedule: Q01DX005 (ip), vehicle: saline with Tween-80 98 % of control | endpoint: median survival time, dose: 200.0 mg/kg/injection, schedule: Q01DX005 (ip), vehicle: saline with Tween-80 95 % of control | endpoint: median survival time, dose: 400.0 mg/kg/injection, schedule: Q01DX005 (ip), vehicle: saline with Tween-80 91 % of control

C[n+]1ccccc1SC12CC3CC(CC(C3)C1)C2
inactive: endpoint: mean survival time, dose: 2.5 mg/kg/injection, schedule: Q01DX009 (ip), vehicle: Klucel (hydroxypropylcellulose) (HPC) 98 % of control | endpoint: mean survival time, dose: 5.0 mg/kg/injection, schedule: Q01DX009 (ip), vehicle: Klucel (hydroxypropylcellulose) (HPC) 98 % of control | endpoint: mean survival time, dose: 10.0 mg/kg/injection, schedule: Q01DX009 (ip), vehicle: Klucel (hydroxypropylcellulose) (HPC) 103 % of control

Cn1nc(NC(=O)C(F)(F)F)c2ncc(-c3ccccc3)nc21
inactive: [7] 91 % of control | [8] 87 % of control | [9] 91 % of control

Source: PubChem BioAssay AID256 (DTP/NCI, 2004)
